Laboratory results: the supplement of paper PMC11208160

assay: recombinant UMI read abundance after kanamycin selection (control-corrected) (log10(CPM+1)); higher = more efficient recombination; extreme values may be limits of the assay; sequences stand for … in AGTGCAGAGAAAATCGGCCAGTTTTCTCTGCCTGCAGTCCGCATGCCGTGGGACCCCTTGGGTTCTAACCTGTTGCCTAGATTTATGCAGCGGACTGCCTTTCTCCCAAAGTGATAAACCGG…AGGTTGGTTTCACT; site = the 11-nt donor
Protocol: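 Pooled E. coli donor-specificity screen for the IS621 bridge recombinase. Each library member carries a reprogrammed 11-nt donor and a full-length LE bridge RNA expressed in cis from the natural promoter, with a paired donor-binding loop (8-nt LDG + 4-nt RDG) and a target-binding loop fixed to T5. It is co-electroporated with a T5 target plasmid; recombinase is induced with 0.07 mM IPTG and recombinants are selected on kanamycin. UMIs are counted as CPM, averaged over two biological replicates and corrected by the unselected control. Molecule = full bridge RNA written as DNA, built from the T5 scaffold: LDG = donor specificity nt 1-8, RDG = reverse complement of nt 8-11.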
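Further: IS621 bridge recombinase in Escherichia coli cells against a fixed T5 target plasmid.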

Row | Sequence | recombinant UMI read abundance (log10)
1 | ACCCATCCATGGACCGGTTTTCCCGGTAATCCGTATTTGAC (site ACCCATCCTGT) | 0.806
2 | ACCCATCCATGGACCGGTTTTCCCGGTAATCCGTATTTGAC (site ACGCATCCTGT) | 0
3 | ACCCATCCATGGACCGGTTTTCCCGGTAATCCGTATTTGAC (site ACTCATCCTGT) | 0
4 | ACCCCAACATGGACCGGTTTTCCCGGTAATCCGTATTTGTA (site ACCCCAACTTA) | 1.68
5 | ACCCGATCATGGACCGGTTTTCCCGGTAATCCGTATTTGAT (site ACCCGATCTAT) | 1.53
6 | ACCCGCTCATGGACCGGTTTTCCCGGTAATCCGTATTTGTC (site ACCCGCTCTGA) | 2.76
7 | ACCCGGGCATGGACCGGTTTTCCCGGTAATCCGTATTTGAC (site ACCCGGGCTGT) | 2.02
8 | ACCGAACCATGGACCGGTTTTCCCGGTAATCCGTATTTGGA (site ACCGAACCTTC) | 0.00378
9 | ACCGAATCATGGACCGGTTTTCCCGGTAATCCGTATTTGCA (site ACAGTATCTTG) | 0
10 | ACCGAATCATGGACCGGTTTTCCCGGTAATCCGTATTTGCA (site ACCGAATCTTG) | 2.16
11 | ACCGACGCATGGACCGGTTTTCCCGGTAATCCGTATTTGTT (site ACCGACGCTAA) | 0.786
12 | ACCGACTCATGGACCGGTTTTCCCGGTAATCCGTATTTGCC (site ACCGACTCTGG) | 1.78
13 | ACCGATCCATGGACCGGTTTTCCCGGTAATCCGTATTTGCA (site ACCGATCCTTG) | 0.164
14 | ACCGCTACATGGACCGGTTTTCCCGGTAATCCGTATTTGCG (site ACCGCTACTCG) | 1.01
15 | ACCGCTGCATGGACCGGTTTTCCCGGTAATCCGTATTTGGC (site ACCGCTGCTGC) | 2.08
16 | ACCGGAACATGGACCGGTTTTCCCGGTAATCCGTATTTGTG (site ACCGGAACTCA) | 1.41
17 | ACCGGGACATGGACCGGTTTTCCCGGTAATCCGTATTTGAG (site ACCGGGACTCT) | 1.23
18 | ACCGGTCCATGGACCGGTTTTCCCGGTAATCCGTATTTGCC (site ACCGGTCCTGG) | 0
19 | ACCGGTGCATGGACCGGTTTTCCCGGTAATCCGTATTTGAG (site ACCGGTGCTCT) | 1.35
20 | ACCGTATCATGGACCGGTTTTCCCGGTAATCCGTATTTGCT (site ACAGTATCTTG) | 0
21 | ACCGTATCATGGACCGGTTTTCCCGGTAATCCGTATTTGCT (site ACCGTATCTAG) | 2.39
22 | ACCGTATCATGGACCGGTTTTCCCGGTAATCCGTATTTGGT (site ACCGTATCTAC) | 1.32
23 | ACCTAAGCATGGACCGGTTTTCCCGGTAATCCGTATTTGGC (site ACCTAAGCTGC) | 2.22
24 | ACCTACCCATGGACCGGTTTTCCCGGTAATCCGTATTTGAC (site ACCTACCCTGT) | 0.183

Row | Sequence | recombinant UMI read abundance (log10)
25 | ACCTGATCATGGACCGGTTTTCCCGGTAATCCGTATTTGAT (site ACCTGATCTAT) | 0.427
26 | ACCTGCCCATGGACCGGTTTTCCCGGTAATCCGTATTTGTT (site ACCTGCCCTAA) | 0.188
27 | ACCTGGACATGGACCGGTTTTCCCGGTAATCCGTATTTGCA (site ACCTGGACTTG) | 1.82
28 | ACCTGGACATGGACCGGTTTTCCCGGTAATCCGTATTTGTG (site ACCTGGACTCA) | 0.502
29 | ACCTGGGCATGGACCGGTTTTCCCGGTAATCCGTATTTGTC (site ACCTGGGCTGA) | 0
30 | ACCTTAGCATGGACCGGTTTTCCCGGTAATCCGTATTTGAA (site ACCTTAGCTTT) | 0.29
31 | ACCTTAGCATGGACCGGTTTTCCCGGTAATCCGTATTTGGT (site ACCTTAGCTAC) | 0.271
32 | ACCTTCTCATGGACCGGTTTTCCCGGTAATCCGTATTTGGG (site ACCTTCTCTCC) | 0.00668
33 | ACCTTCTCATGGACCGGTTTTCCCGGTAATCCGTATTTGGG (site CCCTTCTCTCC) | 0.00967
34 | ACCTTCTCATGGACCGGTTTTCCCGGTAATCCGTATTTGGG (site GCCTTCTCTCC) | 0.00741
35 | ACCTTCTCATGGACCGGTTTTCCCGGTAATCCGTATTTGGG (site TCCTTCTCTCC) | 0.00341
36 | ACGAACTCATGGACCGGTTTTCCCGGTAATCCGTATTTGTC (site ACGAACTCTGA) | 2.03
37 | ACGAAGACATGGACCGGTTTTCCCGGTAATCCGTATTTGTA (site ACGAAGACTTA) | 2.82
38 | ACGAAGACATGGACCGGTTTTCCCGGTAATCCGTATTTGTA (site AGGAAGACTTG) | 0
39 | ACGAAGCCATGGACCGGTTTTCCCGGTAATCCGTATTTGGG (site ACGAAGCCTCC) | 0.0169
40 | ACGAAGCCATGGACCGGTTTTCCCGGTAATCCGTATTTGGG (site CCGAAGCCTCC) | 0.00571
41 | ACGAAGCCATGGACCGGTTTTCCCGGTAATCCGTATTTGGG (site GCGAAGCCTCC) | 0.0145
42 | ACGAAGCCATGGACCGGTTTTCCCGGTAATCCGTATTTGGG (site TCGAAGCCTCC) | 0.113
43 | ACGACGCCATGGACCGGTTTTCCCGGTAATCCGTATTTGCT (site ACGACGCCTAG) | 0
44 | ACGAGAACATGGACCGGTTTTCCCGGTAATCCGTATTTGCC (site ACGAGAACTGG) | 2.44
45 | ACGAGTTCATGGACCGGTTTTCCCGGTAATCCGTATTTGGA (site ACGAGTTCTTC) | 2.41
46 | ACGATAGCATGGACCGGTTTTCCCGGTAATCCGTATTTGTC (site ACGATAGCTGA) | 2.92
47 | ACGATGACATGGACCGGTTTTCCCGGTAATCCGTATTTGCA (site ACGATGACTTG) | 3.16
48 | ACGATGACATGGACCGGTTTTCCCGGTAATCCGTATTTGCA (site AGGAAGACTTG) | 0.907

Row | Sequence | recombinant UMI read abundance (log10)
49 | ACGCACGCATGGACCGGTTTTCCCGGTAATCCGTATTTGGG (site AAGCACGCTCC) | 0.0265
50 | ACGCACGCATGGACCGGTTTTCCCGGTAATCCGTATTTGGG (site ACGCACGCTCC) | 0.00911
51 | ACGCACGCATGGACCGGTTTTCCCGGTAATCCGTATTTGGG (site AGGCACGCTCC) | 0.00698
52 | ACGCACGCATGGACCGGTTTTCCCGGTAATCCGTATTTGGG (site ATGCACGCTCC) | 0.12
53 | ACGCCACCATGGACCGGTTTTCCCGGTAATCCGTATTTGGG (site ACGCCACCTCC) | 0.011
54 | ACGCCTCCATGGACCGGTTTTCCCGGTAATCCGTATTTGTG (site ACGCCTCCTCA) | 0.0426
55 | ACGCGCACATGGACCGGTTTTCCCGGTAATCCGTATTTGCG (site ACGCGCACTCG) | 1.97
56 | ACGGCCCCATGGACCGGTTTTCCCGGTAATCCGTATTTGTG (site ACGGCCCCTCA) | 0.0276
57 | ACGGCCGCATGGACCGGTTTTCCCGGTAATCCGTATTTGAA (site ACGGCCGCTTT) | 1.43
58 | ACGGCGTCATGGACCGGTTTTCCCGGTAATCCGTATTTGGT (site ACGGCGTCTAC) | 2.01
59 | ACGGGACCATGGACCGGTTTTCCCGGTAATCCGTATTTGTC (site ACGGGACCTGA) | 0
60 | ACGGGCGCATGGACCGGTTTTCCCGGTAATCCGTATTTGTT (site ACGGGCGCTAA) | 1.39
61 | ACGGTAGCATGGACCGGTTTTCCCGGTAATCCGTATTTGCA (site ACAGTATCTTG) | 2.05
62 | ACGGTAGCATGGACCGGTTTTCCCGGTAATCCGTATTTGCA (site ACGGTAGCTTG) | 2.74
63 | ACGTAGCCATGGACCGGTTTTCCCGGTAATCCGTATTTGCC (site ACGTAGCCTGG) | 0.17
64 | ACGTCACCATGGACCGGTTTTCCCGGTAATCCGTATTTGTA (site ACGTCACCTTA) | 0.0617
65 | ACGTGCACATGGACCGGTTTTCCCGGTAATCCGTATTTGGG (site ACGTGCACTCC) | 0.0159
66 | ACGTGGCCATGGACCGGTTTTCCCGGTAATCCGTATTTGAG (site ACGTGGCCTCT) | 0.0124
67 | ACGTGTACATGGACCGGTTTTCCCGGTAATCCGTATTTGTT (site ACGTGTACTAA) | 1.47
68 | ACGTGTTCATGGACCGGTTTTCCCGGTAATCCGTATTTGAC (site ACGTGTTCTGT) | 2.1
69 | ACGTTCCCATGGACCGGTTTTCCCGGTAATCCGTATTTGTG (site AAGTTCCCTCA) | 0.0189
70 | ACGTTCCCATGGACCGGTTTTCCCGGTAATCCGTATTTGTG (site ACGTTCCCTCA) | 0.0247
71 | ACGTTCCCATGGACCGGTTTTCCCGGTAATCCGTATTTGTG (site AGGTTCCCTCA) | 0.0827
72 | ACGTTCCCATGGACCGGTTTTCCCGGTAATCCGTATTTGTG (site ATGTTCCCTCA) | 0.0196
